Assays:
Format in all cases: cell-based, human
Conditions in all cases: drug added day 4, read day 7, general-purpose medium
HT29 cells [1] = experiment: Anti-cancer drug evaluation, HT29 cells, 2D culture method, ATP assay
Description: (§1) On the fourth day after the start of the culture, an anti-cancer drug SN-38 (Selleck, S4908) was added to the medium in each well at a concentration of 0, 0.01, 0.1, 1 or 10 μM. On the seventh day after the start of culture, the number of HT29 cells was counted by ATP assay. The cell viability was calculated using the above formula (2) to evaluate the drug efficacy.

HT29 cells [2] = experiment: Anti-cancer drug evaluation, HT29 cells on stromal cell layer, 3D culture method, EpCAM immunofluorescence
Description: 2.0×10^6 NHDFs and 3.0×10^4 HUVECs were suspended in an equal volume mixture of 150 μL of 0.2 mg/mL heparin/50 mM Tris-HCl buffer (pH 7.4) and 150 μL of 0.2 mg/mL collagen/5 mM acetate solution (pH 3.7). The resulting mixture was centrifuged at 1,000×g for 1 minute at room temperature to obtain a viscous mass. The obtained viscous mass was suspended in DMEM containing 10% FBS. The entire suspension was seeded in a 24-well Transwell culture insert and centrifuged at 400×g (gravitational acceleration) at room temperature for 1 minute. As a result, a cell layer (i.e., a cell layer containing cells forming the stroma) was formed on the membrane of the Transwell culture insert.
Subsequently, HT29 cells were seeded on the cell layer at 1×10^3 cells/well and cultured in the general-purpose medium shown in Table 4 above. On the fourth day after the start of the culture, an anti-cancer drug SN-38 (Selleck, S4908) was added to the medium in each well at a concentration of 0, 0.01, 0.1, 1 or 10 μM.
On the seventh day after the start of culture, the cells were fixed and stained for EpCAM with immunofluorescence staining, and the stained cells were counted as HT29 cells. More specifically, the area of fluorescence emission from cancer cells was calculated using a microscope system (Operetta CLS, PerkinElmer) in the fluorescence mode (fluorescence: Alexa 647). The cell viability was calculated using the following formula (3) to evaluate the drug efficacy.

HT29 cells [3] = experiment: Anti-cancer drug evaluation, HT29 cells cultured using stromal stamp, ATP assay
Description: HT29 (ATCC, HTB-38), a human colon adenocarcinoma cell line, was seeded in the third vessel (24-well plate) in Table 3 above at 1×10^3 cells/well. The stromal stamp prepared in Example 1 was then placed on each well.
as §1, with “culture, the stromal stamps were removed and the number of” for “culture, the number of”, “using the following formula (2)” for “using the above formula (2)”

CCc1c2c(nc3ccc(O)cc13)-c1cc3c(c(=O)n1C2)COC(=O)[C@]3(O)CC [SN-38]
Cell viability (%) (HT29 cells [1]; 0.01 μM): 78.3 ± 9.45%
Cell viability (%) (HT29 cells [1]; 0.1 μM): 54.3 ± 5.45%
Cell viability (%) (HT29 cells [1]; 1 μM): 35 ± 3.24%
Cell viability (%) (HT29 cells [1]; 10 μM): 21.3 ± 4.23%
Cell viability (%) (HT29 cells [2]; 0.01 μM): 97.8 ± 20.04%
Cell viability (%) (HT29 cells [2]; 0.1 μM): 72.87 ± 14.57%
Cell viability (%) (HT29 cells [2]; 1 μM): 54.21 ± 13.05%
Cell viability (%) (HT29 cells [2]; 10 μM): 34.2 ± 9.47%
Cell viability (%) (HT29 cells [3]; 0.01 μM): 103.3 ± 14.5%
Cell viability (%) (HT29 cells [3]; 0.1 μM): 72.87 ± 14.57%
Cell viability (%) (HT29 cells [3]; 1 μM): 49.3 ± 13.05%
Cell viability (%) (HT29 cells [3]; 10 μM): 36.5 ± 10.24%
